The source of these data is patent US4419123A, “Herbicidal 4-trifluoromethyl-3'-carbon-substituted-4'-substituted diphenyl ethers” (Rohm and Haas Company, priority 1981, dated 1983).

Structures are written as SMILES.

For data set [1], the system named is peanuts. As to the kind of experiment: Crop tolerance (selective herbicidal activity), peanuts. The class given is in vivo. The method, then:
(§1) The following test procedure is employed.
(§2) Following the general test procedure of Example 37, diphenyl ethers are evaluated for significant tolerance (as shown by 50% or less kill of the test crop at levels of application which give more than 50% kill of many or all of the weeds of Example 73) towards some or all of the following common agronomic crops (not all compounds tested against all crops): alfalfa, snapbeans, corn, cotton, cucumbers, peanuts, rape, rice, safflower, soybeans, tomatoes, and wheat.

Data set [2] has as its system corn. Nature of the data set: Crop tolerance (selective herbicidal activity), corn. The class given is in vivo. The method, then: as §1, §2
The nature of data set [3]: Postemergence herbicidal activity (% control) against monocot weeds. The class given is in vivo. The following applies: post-emergence, 336 h, average, about two weeks after application, read-out: Herbicidal activity (% control), postemergence, monocots; for activity at 2241.7 g/ha: 2 lb./A.; for activity at 4483.4 g/ha: 4 lb./A.
Excerpt: (§3) barnyardgrass (Echinochloa crusgalli) crabgrass (Digitaria spp.) nutsedge (Cyperus esculentus)
(§4) At 2 and 4 pounds per acre:
(§5) **Bermudagrass (Cynodon dactylon)
(§6) *downy brome (Bromus tectorum) foxtail (Setaria faberii)
(§7) Johnsongrass (Sorghum halepense) […]
(§8) quackgrass (Agropyron repens)
(§9) *ryegrass (Lolium perenne)
(§10) *wild oats (Avena factua)
(§11) *yellow millet (Panicum miliaceum)
as §1

Data set [4] in a line: Preemergence herbicidal activity (% control) against monocot weeds. The class given is in vivo. The following applies: pre-emergence, 336 h, average, about two weeks after application, read-out: Herbicidal activity (% control), preemergence, monocots; for activity at 2241.7 g/ha: 2 lb./A.; for activity at 4483.4 g/ha: 4 lb./A.
Excerpt: as §3, §4, §5, §6, §7, §8, §9, §10, §11, §1

In data set [5] the test system is soybeans. As to the kind of experiment: Crop tolerance (selective herbicidal activity), soybeans. The class given is in vivo. The following applies: preemergence applications. The method, then:
as §1, §2

The nature of data set [6]: Preemergence herbicidal activity (% control) against dicot weeds. The following applies: pre-emergence, 336 h; for activity at 2241.7 g/ha: read-out: Herbicidal activity (% control), preemergence, dicots, 2 lb./A., average, about two weeks after application; for activity at 4483.4 g/ha: read-out: Herbicidal activity (% control), preemergence, dicots, 4 lb./A., average, about two weeks after application.

Data set [7] in a line: Postemergence herbicidal activity (% control) against dicot weeds. The following applies: post-emergence, 336 h; for activity at 2241.7 g/ha: read-out: Herbicidal activity (% control), postemergence, dicots, 2 lb./A., average, about two weeks after application; for activity at 4483.4 g/ha: read-out: Herbicidal activity (% control), postemergence, dicots, 4 lb./A., average, about two weeks after application.

The subject of data set [8] is wheat. Nature of the data set: Crop tolerance (selective herbicidal activity), wheat. The class given is in vivo. The method, then: as §1, §2
The test system of data set [9] is rice. Nature of the data set: Crop tolerance (selective herbicidal activity), rice. The class given is in vivo. The method, then:
as §1, §2

Where [10] appears, read: postemergence applications or applications on transplanted rice.

As for `CC(=O)Oc1cc(Oc2ccc(C(F)(F)F)cc2Cl)ccc1[N+](=O)[O-]` [Example 18, 2-Chloro-α,α,α-trifluoro-p-tolyl-3-acetoxy-4-nitrophenylether], the Tolerance to peanuts result in [1] (postemergence applications) is given as “Tolerance (significant tolerance (as shown by 50% or less kill of the test crop at levels of application which give more than 50% kill of many or all of the weeds of Example 73))”. The Tolerance to corn result in data set [2] (postemergence applications) is “Tolerance (significant tolerance (as shown by 50% or less kill of the test crop at levels of application which give more than 50% kill of many or all of the weeds of Example 73))”. The activity at 2241.7 g/ha in [3] came out at 28%; in data set [4], 99%; in data set [6], 100%; in [7] it was 98%. The activity at 4483.4 g/ha is 28% in [3], 67% in data set [4], 100% in data set [6] and 86% in data set [7]. In addition, the Tolerance to soybeans result in [5] is given as “Tolerance (significant tolerance (as shown by 50% or less kill of the test crop at levels of application which give more than 50% kill of many or all of the weeds of Example 73))”. For the same molecule, the Tolerance to wheat entry in data set [8] (postemergence applications) and in [8] (preemergence applications) was “Tolerance (significant tolerance (as shown by 50% or less kill of the test crop at levels of application which give more than 50% kill of many or all of the weeds of Example 73))” each time. Further, in data set [9] (setting [10]), the Tolerance to rice entry is on record as “Tolerance (significant tolerance (as shown by 50% or less kill of the test crop at levels of application which give more than 50% kill of many or all of the weeds of Example 73))”.

As to `CCNc1cc(Oc2ccc(C(F)(F)F)cc2Cl)ccc1[N+](=O)[O-]` [Example 19, 2-Chloro-α,α,α-trifluoro-p-tolyl-3-ethylamino-4-nitrophenyl ether], the Tolerance to peanuts entry in data set [1] (preemergence applications) was “Tolerance (significant tolerance (as shown by 50% or less kill of the test crop at levels of application which give more than 50% kill of many or all of the weeds of Example 73))”. Besides, the Tolerance to corn result in [2] (postemergence applications) and in data set [2] (preemergence applications) was “Tolerance (significant tolerance (as shown by 50% or less kill of the test crop at levels of application which give more than 50% kill of many or all of the weeds of Example 73))” each time. Moreover, the activity at 2241.7 g/ha in data set [3] was determined as 94%; in data set [4] it was 77%; in data set [6] it was 91%; in data set [7], 97%. Also, the activity at 4483.4 g/ha is 84% in [3], 91% in data set [4], 96% in data set [6] and 98% in data set [7]. The Tolerance to soybeans entry in data set [5] is on record as “Tolerance (significant tolerance (as shown by 50% or less kill of the test crop at levels of application which give more than 50% kill of many or all of the weeds of Example 73))”. Also, the Tolerance to wheat entry in data set [8] (preemergence applications) is given as “Tolerance (significant tolerance (as shown by 50% or less kill of the test crop at levels of application which give more than 50% kill of many or all of the weeds of Example 73))”. Besides, the Tolerance to rice entry in data set [9] (preemergence applications) is given as “Tolerance (significant tolerance (as shown by 50% or less kill of the test crop at levels of application which give more than 50% kill of many or all of the weeds of Example 73))”.

Take `O=C(O)c1cc(Oc2ccc(C(F)(F)F)cc2Cl)ccc1[N+](=O)[O-]` [Example 48, 2-Chloro-α,α,α-trifluoro-p-tolyl-3-carboxy-4-nitrophenylether]: the Tolerance to peanuts entry in data set [1] (postemergence applications) and in data set [1] (preemergence applications) was “Tolerance (significant tolerance (as shown by 50% or less kill of the test crop at levels of application which give more than 50% kill of many or all of the weeds of Example 73))” throughout. Further, the activity at 2241.7 g/ha is 84% in [3], 100% in [4], 100% in [6] and 97% in data set [7]. Besides, the activity at 4483.4 g/ha came out at 75% in [3], 99% in data set [4], 97% in data set [6] and 100% in data set [7]. Moreover, the Tolerance to soybeans result in [5] was “Tolerance (significant tolerance (as shown by 50% or less kill of the test crop at levels of application which give more than 50% kill of many or all of the weeds of Example 73))”. Besides, in data set [8] (postemergence applications), the Tolerance to wheat result is on record as “Tolerance (significant tolerance (as shown by 50% or less kill of the test crop at levels of application which give more than 50% kill of many or all of the weeds of Example 73))”. In [9] (setting [10]), the Tolerance to rice entry is given as “Tolerance (significant tolerance (as shown by 50% or less kill of the test crop at levels of application which give more than 50% kill of many or all of the weeds of Example 73))”.

Take `COC(=O)C(C)Oc1cc(Oc2ccc(C(F)(F)F)cc2Cl)ccc1[N+](=O)[O-]` (stereo not shown) [Example 50]: the Tolerance to peanuts entry in data set [1] (preemergence applications) was “Tolerance (significant tolerance (as shown by 50% or less kill of the test crop at levels of application which give more than 50% kill of many or all of the weeds of Example 73))”. Further, the activity at 2241.7 g/ha is 100% in data set [3], 98% in data set [4] and 100% in [6]. Besides, the activity at 4483.4 g/ha in data set [3] was 97%; in data set [4] it was 90%; in data set [6], 83%; in data set [7], 100%. The Tolerance to soybeans result in data set [5] is given as “Tolerance (significant tolerance (as shown by 50% or less kill of the test crop at levels of application which give more than 50% kill of many or all of the weeds of Example 73))”. Besides, the Tolerance to wheat entry in data set [8] (preemergence applications) was “Tolerance (significant tolerance (as shown by 50% or less kill of the test crop at levels of application which give more than 50% kill of many or all of the weeds of Example 73))”.

Take `CCOc1cc(Oc2c(Cl)cc(C(F)(F)F)cc2Cl)ccc1[N+](=O)[O-]` [Example 56, 2,6-Dichloro-α,α,α-trifluoro-p-tolyl-3-ethoxy-4-nitrophenyl ether]: in data set [1] (preemergence applications), the Tolerance to peanuts result is recorded as “Tolerance (significant tolerance (as shown by 50% or less kill of the test crop at levels of application which give more than 50% kill of many or all of the weeds of Example 73))”. The Tolerance to corn entry in [2] (postemergence applications) was “Tolerance (significant tolerance (as shown by 50% or less kill of the test crop at levels of application which give more than 50% kill of many or all of the weeds of Example 73))”. Also, the activity at 2241.7 g/ha in data set [3] is 100%; in data set [4] it was 100%; in data set [7], 99%. Also, the activity at 4483.4 g/ha in data set [3] was determined as 99%; in data set [4], 91%; in data set [6], 83%; in data set [7], 100%. Besides, the Tolerance to wheat result in data set [8] (preemergence applications) is recorded as “Tolerance (significant tolerance (as shown by 50% or less kill of the test crop at levels of application which give more than 50% kill of many or all of the weeds of Example 73))”.
